Measurements reported in ChEMBL document CHEMBL1128530, “Alpha- and beta-adrenoceptors: from the gene to the clinic. 1. Molecular biology and adrenoceptor subclassification” (J Med Chem, 1995).

Biological target: T1, Alpha-2A adrenergic receptor (Rattus norvegicus, UniProt P22909)
T1 sequence (P22909 whole entry): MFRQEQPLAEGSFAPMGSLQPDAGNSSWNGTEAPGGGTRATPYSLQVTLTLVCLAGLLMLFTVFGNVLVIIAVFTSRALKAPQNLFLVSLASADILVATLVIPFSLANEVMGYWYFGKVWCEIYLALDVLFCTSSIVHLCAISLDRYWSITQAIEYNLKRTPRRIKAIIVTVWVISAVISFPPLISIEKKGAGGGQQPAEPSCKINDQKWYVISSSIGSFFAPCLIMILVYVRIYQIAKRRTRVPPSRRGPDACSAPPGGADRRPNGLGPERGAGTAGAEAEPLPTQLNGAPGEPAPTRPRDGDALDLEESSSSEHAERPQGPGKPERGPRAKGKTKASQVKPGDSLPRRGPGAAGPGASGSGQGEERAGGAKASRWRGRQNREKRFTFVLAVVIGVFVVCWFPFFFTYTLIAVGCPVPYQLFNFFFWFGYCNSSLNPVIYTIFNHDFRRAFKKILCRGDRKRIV
Experiment: The compound was tested for binding affinity against alpha-2d-adrenoceptor, from rat clones.

COc1cccc(OC)c1OCCNCC1COc2ccccc2O1 (stereo unspecified) showed a Ki of 46 nM.
